Assay results published in patent US20050090505A1, “Methods of reducing risk of infection from pathogens” (priority 2003, published 2005).
Structures can show the parent of a compound that is named as a salt.

Experiments:
[1] = target: T1, airway epithelial sodium currents (sodium channel) (UniProt A0A8I3MKE6+A0A8I3Q679+Q95165); test: Sodium channel blocking activity: inhibition of short circuit current (ISC) in airway epithelial monolayers mounted in Ussing chambers; assay type: cell-based, human, dog, sheep or rodent; details: for Fold Amiloride** (PSA 4022 = 100): relative potency for PSA 4022 = 100 using EC50 from PSA 4022 in same run; for EC50: Selected Alaphatic Pyrazinoylguanidines (Formula II), mean ± spread, read-out: EC50
T1 sequence (A0A8I3MKE6 1-646): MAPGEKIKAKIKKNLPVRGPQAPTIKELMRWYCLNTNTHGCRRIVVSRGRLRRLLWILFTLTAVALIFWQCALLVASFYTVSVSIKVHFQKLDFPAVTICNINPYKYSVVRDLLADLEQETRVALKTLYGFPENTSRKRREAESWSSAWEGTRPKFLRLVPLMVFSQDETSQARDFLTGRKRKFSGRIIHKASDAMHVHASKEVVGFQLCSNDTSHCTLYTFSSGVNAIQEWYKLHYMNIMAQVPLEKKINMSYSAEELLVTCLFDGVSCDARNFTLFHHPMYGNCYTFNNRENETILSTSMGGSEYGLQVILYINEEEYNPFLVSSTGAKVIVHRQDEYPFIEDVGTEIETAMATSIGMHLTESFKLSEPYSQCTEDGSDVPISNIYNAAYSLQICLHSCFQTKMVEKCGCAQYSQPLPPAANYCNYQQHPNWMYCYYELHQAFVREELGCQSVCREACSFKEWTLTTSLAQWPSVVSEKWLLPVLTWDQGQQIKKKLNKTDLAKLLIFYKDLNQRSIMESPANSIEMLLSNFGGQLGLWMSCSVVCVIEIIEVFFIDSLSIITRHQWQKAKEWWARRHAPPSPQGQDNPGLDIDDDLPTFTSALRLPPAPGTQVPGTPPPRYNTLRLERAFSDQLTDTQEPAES
T1 sequence (A0A8I3Q679 1-649): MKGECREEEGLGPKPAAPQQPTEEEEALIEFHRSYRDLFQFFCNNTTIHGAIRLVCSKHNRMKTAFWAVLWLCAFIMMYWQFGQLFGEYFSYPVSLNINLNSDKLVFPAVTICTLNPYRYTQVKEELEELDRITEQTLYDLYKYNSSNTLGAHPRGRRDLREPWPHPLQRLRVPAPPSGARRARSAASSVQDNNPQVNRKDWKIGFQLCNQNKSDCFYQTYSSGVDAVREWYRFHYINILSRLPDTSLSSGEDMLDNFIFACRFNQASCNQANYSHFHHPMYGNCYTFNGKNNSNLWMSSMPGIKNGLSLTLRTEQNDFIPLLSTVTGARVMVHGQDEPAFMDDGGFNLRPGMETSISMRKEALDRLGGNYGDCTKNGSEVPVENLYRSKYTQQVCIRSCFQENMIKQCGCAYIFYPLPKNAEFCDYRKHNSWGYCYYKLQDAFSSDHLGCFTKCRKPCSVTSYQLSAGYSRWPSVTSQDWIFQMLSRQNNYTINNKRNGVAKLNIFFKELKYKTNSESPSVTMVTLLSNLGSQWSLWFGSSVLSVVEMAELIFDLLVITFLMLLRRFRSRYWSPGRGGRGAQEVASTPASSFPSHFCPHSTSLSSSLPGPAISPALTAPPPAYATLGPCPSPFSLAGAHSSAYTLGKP
T1 sequence (Q95165 1-641): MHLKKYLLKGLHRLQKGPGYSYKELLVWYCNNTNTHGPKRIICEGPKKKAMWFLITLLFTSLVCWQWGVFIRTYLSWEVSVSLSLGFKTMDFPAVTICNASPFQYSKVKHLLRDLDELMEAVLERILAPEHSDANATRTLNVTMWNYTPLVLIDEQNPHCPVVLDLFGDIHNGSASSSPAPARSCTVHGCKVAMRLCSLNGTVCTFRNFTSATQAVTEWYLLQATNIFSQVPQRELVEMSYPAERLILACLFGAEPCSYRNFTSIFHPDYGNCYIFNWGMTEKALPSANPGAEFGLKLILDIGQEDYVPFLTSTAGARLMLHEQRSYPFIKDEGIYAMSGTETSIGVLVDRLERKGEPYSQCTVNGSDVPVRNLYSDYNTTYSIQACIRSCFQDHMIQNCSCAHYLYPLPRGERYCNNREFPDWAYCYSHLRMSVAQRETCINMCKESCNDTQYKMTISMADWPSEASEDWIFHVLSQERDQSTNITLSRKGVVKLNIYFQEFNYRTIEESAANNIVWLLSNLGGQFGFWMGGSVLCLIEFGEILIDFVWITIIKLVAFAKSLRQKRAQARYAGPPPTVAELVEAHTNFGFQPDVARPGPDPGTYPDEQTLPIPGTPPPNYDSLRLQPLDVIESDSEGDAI
Description: In Vitro Measure of Sodium Channel Blocking Activity and Reversibility
One assay used to assess mechanism of action and/or potency of the compounds of the present invention involves the determination of lumenal drug inhibition of airway epithelial sodium currents measured under short circuit current (ISC) using airway epithelial monolayers mounted in Ussing chambers. Cells obtained from freshly excised human, dog, sheep or rodent airways are seeded onto porous 0.4 micron Snapwell™ Inserts (CoStar), cultured at air-liquid interface (ALI) conditions in hormonally defined media, and assayed for sodium transport activity (ISC) while bathed in Krebs Bicarbonate Ringer (KBR) in Using chambers. All test drug additions are to the lumenal bath with half-log dose addition protocols (from 1×10^−11 M to 3×10^−5 M), and the cumulative change in ISC (inhibition) recorded. All drugs are prepared in dimethyl sulfoxide as stock solutions at a concentration of 1×10^−2 M and stored at −20° C. Eight preparations are typically run in parallel; two preparations per run incorporate amiloride and/or benzamil as positive controls. After the maximal concentration (5×10^−5 M) is administered, the lumenal bath is exchanged three times with fresh drug-free KBR solution, and the resultant ISC measured after each wash for approximately 5 minutes in duration. Reversibility is defined as the percent return to the baseline value for sodium current after the third wash. All data from the voltage clamps are collected via a computer interface and analyzed off-line.
Dose-effect relationships for all compounds are considered and analyzed by the Prism 3.0 program. IC50 values, maximal effective concentrations, and reversibility are calculated and compared to amiloride and benzamil as positive controls.

Question: Which melting point does the source give for `N=C(N)NCCCCCCCCCCNC(=N)NC(=O)c1nc(Cl)c(N)nc1N` (as salt: hydrochloride) [compound 23608, N-{10-[N′-(3,5-diamino-6-chloropyrazine-2-carbonyl)guanidino]-decyl}guanidine dihydrochloride] here?
Answer: 156 to 158 °C

Question: For `N=C(NCCCCCCCCCCCCN)NC(=O)c1nc(Cl)c(N)nc1N` (as salt: hydrochloride) [compound 23609, N-(12-aminododecyl)-N′-(3,5-diamino-6-chloropyrazine-2-carbonyl)-guanidine dihydrochloride], which melting point is on record?
Answer: 235 to 237 °C

Question: For `N=C(NCCCCCCCCCCCN)NC(=O)c1nc(Cl)c(N)nc1N` (as salt: hydrochloride) [compound 23682, N-(11-aminoundecyl)-N′-(3,5-diamino-6-chloropyrazine-2-carbonyl)guanidine dihydrochloride], which melting point is on record?
Answer: 220 to 222 °C

Question: With `N=C(N)NCCCCCCCCCCCCNC(=N)NC(=O)c1nc(Cl)c(N)nc1N` (as salt: hydrochloride) [compound 23683, N-{12-[N′-(3,5-diamino-6-chloropyrazine-2-carbonyl)guanidino]dodecyl)guanidine dihydrochloride] as the compound, how does the melting point read?
Answer: 145 to 147 °C

Question: Which melting point does the source give for `N=C(N)NCCCCCCCCCCCNC(=N)NC(=O)c1nc(Cl)c(N)nc1N` (as salt: hydrochloride) [compound 23991, N-{11-[N′-(3,5-diamino-6-chloropyrazine-2-carbonyl)guanidino]-undecyl}guanidine dihydrochloride] here?
Answer: 151 to 153 °C

Question: Which melting point does the source give for `N=C(NCCCCC1CCN(CCO)CC1)NC(=O)c1nc(Cl)c(N)nc1N` (as salt: hydrochloride) [compound 25193, N-(3,5-diamino-6-chloropyrazine-2-carbonyl)-N′-{4-[1-(2-hydroxyethyl)piperidin-4-yl]butyl}guanidine dihydrochloride] here?
Answer: 168 to 170 °C

Question: Which melting point does the source give for `N=C(NCCCCc1ccc(OCC(O)COCC(O)CO)cc1)NC(=O)c1nc(Cl)c(N)nc1N` (centres unmarked) [compound 15143, N-(3,5-diamino-6-chloropyrazine-2-carbonyl)-N′-(4-{4-[3-(2,3-dihydroxypropoxy)-2-hydroxypropoxy]phenyl}butyl)guanidine] here?
Answer: 73 to 82 °C (dec.)

Question: And the “Fold Amiloride** (PSA 4022 = 100)” value ([1]; Capped Pyrazinoylguanidines)?
Answer: 107 ± 11

Question: What does the source list for `N#CCOc1ccc(CCCCNC(=N)NC(=O)c2nc(Cl)c(N)nc2N)cc1` [compound 16208, N-[4-(4-cyanomethoxyphenyl)butyl]-N′-(3,5-diamino-6-chloro-pyrazine-2-carbonyl)guanidine]?
Answer: melting point: 129 to 132 °C; Fold Amiloride** (PSA 4022 = 100) ([1]; Capped Pyrazinoylguanidines): 52 ± 21

Question: For `N=C(NCCCCc1ccc(OCC(=O)Nc2ccccc2)cc1)NC(=O)c1nc(Cl)c(N)nc1N` [compound 17482, 2-(4-{4-[N′-(3,5-diamino-6-chloropyrazine-2-carbonyl)guanidino]-butyl}phenoxy)-N-phenylacetamide], which melting point is on record?
Answer: 168 to 170 °C

Question: And the “Fold Amiloride** (PSA 4022 = 100)” value ([1]; Capped Pyrazinoylguanidines)?
Answer: 39 ± 6

Question: What does the source list for `CN(C)C(=S)Oc1ccc(CCCCNC(=N)NC(=O)c2nc(Cl)c(N)nc2N)cc1` [compound 17846, dimethylthiocarbamic acid O-(4-{4-[N′-(3,5-diamino-6-chloropyrazine-2-carbonyl)guanidino]butyl}phenyl) ester]?
Answer: melting point: 102 to 105 °C; Fold Amiloride** (PSA 4022 = 100) ([1]; Capped Pyrazinoylguanidines): 104 ± 49

Question: Which melting point does the source give for `Cl.N=C(NCCCCc1ccc(OCCCc2nnn[nH]2)cc1)NC(=O)c1nc(Cl)c(N)nc1N` [compound 17926, N-(3,5-diamino-6-chloropyrazine-2-carbonyl)-N′-(4-{4-[3-(1H-tetrazol-5-yl)propoxy]phenyl}butyl)guanidine hydrochloride] here?
Answer: 125 to 127 °C (dec.)

Question: What about the “Fold Amiloride** (PSA 4022 = 100)” value ([1]; Capped Pyrazinoylguanidines) of the same compound?
Answer: 29 ± 12

Question: For `N=C(NCCCCCCCN)NC(=O)c1nc(Cl)c(N)nc1N` [compound 18705, N-(7-aminoheptyl)-N′-(3,5-diamino-6-chloropyrazine-2-carbonyl)guanidine], which melting point is on record?
Answer: 185 to 187 °C (dec.)

Question: What about the “Fold Amiloride** (PSA 4022 = 100)” value ([1]; Alaphatic Pyrazinoylguanidines) of the same compound?
Answer: 8 ± 2

Question: What about the EC50 [1] of the same compound?
Answer: 99 ± 31 nM

Question: With `CC(C)[C@H](NS(=O)(=O)c1ccc(CCCCNC(=N)NC(=O)c2nc(Cl)c(N)nc2N)cc1)C(N)=O.Cl` [compound 19008, (2S)-(4-{4-[N′-(3,5-diamino-6-chloropyrazine-2-carbonyl)guanidino]-butyl}benzenesulfonylamino)-3-methylbutyramide] as the compound, how does the melting point read?
Answer: 154 to 156 °C (dec.)

Question: And the “Fold Amiloride** (PSA 4022 = 100)” value ([1]; Capped Pyrazinoylguanidines)?
Answer: 54 ± 6

Question: With `CC(C)(C)OC(=O)NCCCCCCCCNC(=N)NC(=O)c1nc(Cl)c(N)nc1N` [compound 19156, {8-[N′-(3,5-diamino-6-chloropyrazine-2-carbonyl)guanidino]octyl}carbamic acid tert-butyl ester] as the compound, how does the melting point read?
Answer: 189 to 191 °C

Question: And the “Fold Amiloride** (PSA 4022 = 100)” value ([1]; Alaphatic Pyrazinoylguanidines)?
Answer: 18 ± 2

Question: What about the EC50 [1] of the same compound?
Answer: 46 ± 20 nM

Question: Which results are given for `CC(C)(C)OC(=O)NCCCOCCCNC(=N)NC(=O)c1nc(Cl)c(N)nc1N` [compound 19333]?
Answer: melting point: 62 to 65 °C (dec.); Fold Amiloride** (PSA 4022 = 100) ([1]; Alaphatic Pyrazinoylguanidines): 7 ± 2; EC50 [1]: 81 ± 8 nM

Question: Which melting point does the source give for `CC(C)(C)OC(=O)NCCCCCCCCCNC(=N)NC(=O)c1nc(Cl)c(N)nc1N` [compound 19484, {9-[N′-(3,5-diamino-6-chloropyrazine-2-carbonyl)guanidino]nonyl}-carbamic acid tert-butyl ester] here?
Answer: 187 to 189 °C

Question: What about the “Fold Amiloride** (PSA 4022 = 100)” value ([1]; Alaphatic Pyrazinoylguanidines) of the same compound?
Answer: 12

Question: And the EC50 [1]?
Answer: 66 nM

Question: Which results are given for `N=C(NCCCCc1ccc(OCCCc2ncc[nH]2)cc1)NC(=O)c1nc(Cl)c(N)nc1N` [compound 23022, N-(3,5-diamino-6-chloropyrazine-2-carbonyl)-N′-(4-{4-[3-(1H-imidazol-2-yl)propoxy]phenyl}butyl)guanidine]?
Answer: melting point: 123 to 126 °C (dec.); Fold Amiloride** (PSA 4022 = 100) ([1]; Capped Pyrazinoylguanidines): 79 ± 15

Question: For `CC(C)(C)OC(=O)NCCCCCCCCCCCCNC(=N)NC(=O)c1nc(Cl)c(N)nc1N` [compound 23776, {12-[N′-(3,5-diamino-6-chloropyrazine-2-carbonyl)guanidino]dodecyl}-carbamic acid tert-butyl ester], which melting point is on record?
Answer: 154 to 156 °C

Question: What about the “Fold Amiloride** (PSA 4022 = 100)” value ([1]; Alaphatic Pyrazinoylguanidines) of the same compound?
Answer: 7

Question: And the EC50 [1]?
Answer: 75 nM
